Measured values: patent US20240361338A1, “DIAGNOSIS AND TREATMENT OF ECTOPIC ENDOMETRIOSIS” (FERRING B.V., priority 2021, published 2024)

Experiments:
[1] = test system: ectopic E-MSCs; assay: Matrigel transwell invasion assay, ectopic E-MSCs; type: cell-based, human
Procedure: FIG. 4: Quinagolide effect on EMSCs invasion. A and B: Representative micrographs (A) and quantification (B) of quinagolide effect (100 nM) on eutopic and ectopic (both ovarian and peritoneal) EMSCs invasion (original magnification: ×100). C: Concentration response effect of quinagolide treated ectopic EMSCs invasion. D and E: Quantification (D) and representative micrographs (E) (original magnification: ×100) of invasion assays performed on ectopic EMSCs (both ovarian and peritoneal), treated with 100 nM quinagolide (Q100 nM), 5 μM spiperone(S) or a combination of quinagolide and spiperone (S+Q100 nM). All invasion data are represented as mean±SD of at least three independent experiments, performed on different EMSC lines, and normalized to untreated cells (CTL). One-way ANova was performed: *=p<0.05 and **=p<0.001 vs CTL. Quinagolide powder (provided by Ferring Pharmaceuticals) was stored at 4° C. and resuspended in dimethylsulphoxide (DMSO) to a stock solution of 1 mM immediately before use. Spiperone powder (Sigma-Aldrich) was resuspended in water to a stock concentration of 1 mM and stored at −20° C. Cabergoline powder (Sigma-Aldrich) was dissolved in DMSO to a stock concentration of 25 mM and stored at −20° C. […] Quinagolide, cabergoline, sorafenib and cabozantinib and were administered for 24 hours during co-culture experiments, while spiperone was added to culture medium 1 h before quinagolide treatment. […] E-MSCs were seeded in triplicate in Matrigel-precoated (100 μg Matrigel/transwell) 8-um pore transwells at a concentration of 50,000 cells per well in 200 μl of RPMI 2% FCS with/without quinagolide at the indicated concentration. To test the D2 antagonist effect, E-MSCs were pre-treated with spiperone (5 μM) for 1 h at 37° C. before cell detachment. After 48 hours, invaded E-MSCs on the bottom side of the transwell were fixed with methanol and stained with crystal violet. At least five pictures per transwell were acquired (original magnification: 100×), and the percentage of transwell area covered by invaded EMSCs was quantitatively measured by ImageJ software.

[2] = test system: ectopic E-MSCs; assay: Endothelial differentiation (CD31) of ectopic E-MSCs in co-culture with HUVECs; type: cell-based, human; settings: ectopic E-MSCs, 100 nM, 24-h treatment, 48 h co-culture with HUVECs
Procedure: FIG. 5: Quinagolide effect on EMSCs endothelial differentiation. A. FACS gating-strategy for the analysis of CD31^+ EMSCs after direct 48 h co-culture with HUVECs. EMSCs are gated as GFP negative population, and CD31 expression is evaluated on the described gated EMSCs after 48 h co-culture with HUVECs as percentage of CD31 APC positive events. B, C and D: Representative flow cytometry micrographs and quantification, expressed as percentage of variation respect to control co-culture, of the effect of 24 h treatment of EMSCs with 25 μM cabergoline, 1 μM sorafenib, 1 μM cabozantinib (B), 100 nM quinagolide (C) and the combination of 5 μM spiperone and 100 nM quinagolide (D) on EMSCs CD31 expression after 48 h of co-culture with HUVECs. Data are represented as mean±SD of at least three independent experiments, performed on different ectopic EMSC lines, and normalized to untreated co-culture. One-way ANova was performed: *=p<0.05 and ***=p<0.001 vs control.
(BSA)-Phosphate Buffered Saline (PBS) (Sigma). For each staining, 100,000 cells were incubated for 20 minutes at 4° C. with FITC, APC or PE-conjugated antibodies against: CD29, CD44, CD73, CD90 (BD Bioscences, Franklin Lakes, NJ, USA); CD31, CD34, CD105, CD140b, CD146, TEK receptor tyrosine kinase (Tie2), Sushi domain-containing protein 2 (SUSD2) (Miltenyi Biotech, Bergisch Gladbach, Germany); CD45 (AbD Serotec, Raleigh, NC, USA), or epithelial cell adhesion molecule (EPCAM) (BioLegend, San Diego, CA, USA). Labelled cells were washed by centrifugation and final pellet was resuspended in 200 μl of 0.1% BSA-PBS before cytofluorimetric analysis. Isotype (Miltenyi Biotec) was used as negative control.
Quinagolide powder (provided by Ferring Pharmaceuticals) was stored at 4° C. and resuspended in dimethylsulphoxide (DMSO) to a stock solution of 1 mM immediately before use. Spiperone powder (Sigma-Aldrich) was resuspended in water to a stock concentration of 1 mM and stored at −20° C. Cabergoline powder (Sigma-Aldrich) was dissolved in DMSO to a stock concentration of 25 mM and stored at −20° C. Sorafenib and cabozantinib (Sigma-Aldrich) were resuspended in DMSO to a final concentration of 10 mM and according to the manufacturer's instructions, and stored at −20° C. and −80° C., respectively. Quinagolide, spiperone and cabergoline were diluted 1:100 (final concentration 100 nM), 1:1000 (final concentration 5 μM) and 1:1000 (final concentration 25 μM) respectively. Quinagolide, cabergoline, sorafenib and cabozantinib and were administered for 24 hours during co-culture experiments, while spiperone was added to culture medium 1 h before quinagolide treatment. For invasion assays, E-MSCs were treated with spiperone 1 h before the cell detachment and quinagolide was added only when cells were plated on Matrigel. […]

In the case of `CCCN1C[C@@H](NS(=O)(=O)N(CC)CC)C[C@@H]2Cc3c(O)cccc3C[C@H]21` [quinagolide, N,N-diethyl-N′-[(3S,4aS,10aR)-6-hydroxy-1-propyl-1,2,3,4,4a,5,10,10a-octahydrobenzo[g]quinolin-3-yl]sulfamide], the “invasion of ectopic E-MSC lines” value ([1]; 100 nM, 48 h, Matrigel, vs untreated) is reported as “significantly reduced”, the “concentration response of invasion reduction” value ([1]; ectopic EMSCs, 48 h (FIG. 4C)) is reported as “dose-dependent” and the “percentage of CD31 expressing E-MSCs after co-culture” value [2] is reported as “significantly reduced”.
